{
  "source": "PubChem BioAssay (NCI)",
  "test_in_all_cases": "growth of human tumour cells (NCI), 48 h",
  "key": {"[1]": {"test_system": "OVCAR-5 ovarian"}, "[2]": {"test_system": "MOLT-4 leukemia"}, "[3]": {"test_system": "U251 CNS"}, "[4]": {"test_system": "SK-OV-3 ovarian"}, "[5]": {"test_system": "A498 renal"}, "[6]": {"test_system": "SF-295 CNS"}, "[7]": {"test_system": "K-562 leukemia"}, "[8]": {"test_system": "MDA-MB-231 breast"}, "[9]": {"test_system": "RPMI-8226 leukemia"}, "[10]": {"test_system": "NCI-H23 lung"}},
  "note": "Several values for one entry are separate records, joined by “and”; a condition that tells them apart may be missing. Equal values may be shown once.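 How tested: cells in 96-well plates exposed to compound for 48 hours at five concentrations. The concentration for 50% growth inhibition is given as GI50. TGI: concentration producing complete growth inhibition.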",
  "data": [
    {"smiles": "Cn1cnc2c(NCc3ccccc3)nc(NCCO)nc21", "values": [
      {"measurement": "TGI", "setting": "[1]", "value": "> 217", "unit": "µM"},
      {"measurement": "GI50", "setting": "[2]", "value": 103, "unit": "µM"},
      {"measurement": "TGI", "setting": "[2]", "value": 356, "unit": "µM"},
      {"measurement": "GI50", "setting": "[3]", "value": 133, "unit": "µM"},
      {"measurement": "TGI", "setting": "[3]", "value": "> 500", "unit": "µM"},
      {"measurement": "GI50", "setting": "[4]", "value": 241, "unit": "µM"},
      {"measurement": "TGI", "setting": "[4]", "value": "> 460", "unit": "µM"},
      {"measurement": "GI50", "setting": "[5]", "value": 28.8, "unit": "µM"},
      {"measurement": "TGI", "setting": "[5]", "value": "83.3 µM and 311 µM"},
      {"measurement": "GI50", "setting": "[6]", "value": 122, "unit": "µM"},
      {"measurement": "TGI", "setting": "[6]", "value": "> 500", "unit": "µM"},
      {"measurement": "TGI", "setting": "[7]", "value": 489, "unit": "µM"},
      {"measurement": "GI50", "setting": "[8]", "value": 116, "unit": "µM"},
      {"measurement": "TGI", "setting": "[8]", "value": 479, "unit": "µM"},
      {"measurement": "GI50", "setting": "[9]", "value": 81.2, "unit": "µM"},
      {"measurement": "TGI", "setting": "[9]", "value": "> 339", "unit": "µM"},
      {"measurement": "GI50", "setting": "[10]", "value": 110, "unit": "µM"},
      {"measurement": "TGI", "setting": "[10]", "value": 382, "unit": "µM"}
    ]},
    {"smiles": "Cc1ccc(NC(=O)c2ccnc(N3CCCC3)c2)cc1-c1ccc(C(=O)NCC2CC2)cc1", "values": [
      {"measurement": "GI50", "setting": "[1]", "value": "> 25", "unit": "µM"},
      {"measurement": "TGI", "setting": "[1]", "value": "> 25", "unit": "µM"},
      {"measurement": "GI50", "setting": "[2]", "value": "> 25", "unit": "µM"},
      {"measurement": "TGI", "setting": "[2]", "value": "> 25", "unit": "µM"},
      {"measurement": "GI50", "setting": "[3]", "value": "> 25", "unit": "µM"},
      {"measurement": "TGI", "setting": "[3]", "value": "> 25", "unit": "µM"},
      {"measurement": "GI50", "setting": "[4]", "value": "> 25", "unit": "µM"},
      {"measurement": "TGI", "setting": "[4]", "value": "> 25", "unit": "µM"},
      {"measurement": "GI50", "setting": "[5]", "value": "> 25", "unit": "µM"},
      {"measurement": "TGI", "setting": "[5]", "value": "> 25", "unit": "µM"},
      {"measurement": "GI50", "setting": "[6]", "value": "> 25", "unit": "µM"},
      {"measurement": "TGI", "setting": "[6]", "value": "> 25", "unit": "µM"},
      {"measurement": "GI50", "setting": "[7]", "value": "> 25", "unit": "µM"},
      {"measurement": "TGI", "setting": "[7]", "value": "> 25", "unit": "µM"},
      {"measurement": "GI50", "setting": "[8]", "value": 10, "unit": "µM"},
      {"measurement": "TGI", "setting": "[8]", "value": "> 25", "unit": "µM"},
      {"measurement": "GI50", "setting": "[9]", "value": "> 25", "unit": "µM"},
      {"measurement": "TGI", "setting": "[9]", "value": "> 25", "unit": "µM"},
      {"measurement": "GI50", "setting": "[10]", "value": "> 25", "unit": "µM"},
      {"measurement": "TGI", "setting": "[10]", "value": "> 25", "unit": "µM"}
    ]},
    {"smiles": "Cc1ccc(C(=O)NC2CCCCC2)cc1-c1ccc(C(=O)NCC2CC2)cc1", "values": [
      {"measurement": "GI50", "setting": "[1]", "value": "> 25", "unit": "µM"},
      {"measurement": "TGI", "setting": "[1]", "value": "> 25", "unit": "µM"},
      {"measurement": "GI50", "setting": "[2]", "value": "> 25", "unit": "µM"},
      {"measurement": "TGI", "setting": "[2]", "value": "> 25", "unit": "µM"},
      {"measurement": "GI50", "setting": "[3]", "value": "> 25", "unit": "µM"},
      {"measurement": "TGI", "setting": "[3]", "value": "> 25", "unit": "µM"},
      {"measurement": "GI50", "setting": "[4]", "value": "> 25", "unit": "µM"},
      {"measurement": "TGI", "setting": "[4]", "value": "> 25", "unit": "µM"},
      {"measurement": "GI50", "setting": "[5]", "value": 8.51, "unit": "µM"},
      {"measurement": "TGI", "setting": "[5]", "value": "> 25", "unit": "µM"},
      {"measurement": "GI50", "setting": "[6]", "value": 10.8, "unit": "µM"},
      {"measurement": "TGI", "setting": "[6]", "value": "> 25", "unit": "µM"},
      {"measurement": "GI50", "setting": "[7]", "value": 19.4, "unit": "µM"},
      {"measurement": "TGI", "setting": "[7]", "value": "> 25", "unit": "µM"},
      {"measurement": "GI50", "setting": "[8]", "value": "> 25", "unit": "µM"},
      {"measurement": "TGI", "setting": "[8]", "value": "> 25", "unit": "µM"},
      {"measurement": "GI50", "setting": "[9]", "value": "> 25", "unit": "µM"},
      {"measurement": "TGI", "setting": "[9]", "value": "> 25", "unit": "µM"},
      {"measurement": "GI50", "setting": "[10]", "value": "> 25", "unit": "µM"},
      {"measurement": "TGI", "setting": "[10]", "value": "> 25", "unit": "µM"}
    ]}
  ]
}
